Source: paper PMC9616048, “Thermal proteome profiling reveals Haemonchus orphan protein HCO_011565 as a target of the nematocidal small molecule UMW-868” (Frontiers in Pharmacology, 2022)

How the values were obtained:
[1] = tested on: H. contortus xL3 to L4 development; assay: High throughput screen, larval development and phenotype at 168 h; type: cell-based, Haemonchus contortus
Experimental: Following the measurement of xL3 motility, plates were incubated again for 78 h (i.e., a total of 168 h) under the same conditions. Thereafter, 40 µl of 1% (v/v) iodine were added to individual wells, and worms examined using a light microscope (M80, Leica) at 60-times magnification to assess larval development, based on the presence/absence of a well-developed pharynx ([Sommerville, 1966]), and/or phenotypic alterations with respect to untreated xL3s.

H. contortus xL3s [2] = assay: Cell lethality in xL3s (Sytox Green staining); type: cell-based, Haemonchus contortus
Experimental: Fluorescence staining was employed to assess the ability of UMW-868 to reduce the viability of H. contortus. The xL3s were dispensed in 96-well plates at a density of 300 xL3 per well, and incubated with compounds UMW-868 or A-3155, non-active analogs of UMW-868, at 50 μM at 38°C, 10% (v/v) CO2 and >90% relative humidity. After 90 h of incubation, H. contortus xL3s were stained with Sytox Green nucleic acid stain (Thermo Fisher Scientific) at the final concentration of 1 µM in LB* in the same 96-well plates and incubated for 1 h at 38°C and 10% (v/v) CO2 with >90% relative humidity. Following the incubation, the viability of larvae was evaluated by measuring the relative fluorescent units (RFU) of xL3s using an Omega FLUOstar microplate reader (BMG Labtech), with excitation and emission wavelengths set at 485 nm and 520 nm, respectively. The 96-well plates containing the stained larvae were returned to the incubator for further 78 h; after a total of 168 h of compound exposure, the stained larvae were examined under an inverted fluorescence microscope (DM IL, Leica) equipped with a green fluorescent protein filter (470/500/525 […]; Leica), and imaged using Leica Application Suite software (Leica).

H. contortus xL3s [3] = assay: Dose-response evaluation, xL3 motility; type: cell-based; settings: Haemonchus contortus
Experimental: These evaluations were carried out to estimate the half-maximal inhibitory concentrations (IC50 values) for hit compounds against H. contortus xL3s. With reference to the two positive-control compounds (monepantel and moxidectin), IC50 values for compounds were estimated ([Preston et al., 2015]; [Taki et al., 2021a]) using two-fold serial dilution (in LB*; 9 points from 50 μM to 0.2 µM) in 96-well plates (cat. no. 3596; Corning) with larvae at a density of 300 H. contortus xL3s in 100 µl per well. Plates containing H. contortus xL3s were incubated at 38°C, 10% (v/v) CO2 and >90% relative humidity.
Compound concentrations were log10-transformed and fitted using a variable slope four-parameter equation, constraining the highest value to 100% employing a least squares (ordinary) fit model using GraphPad Prism software (v.9.1.2). Compounds were tested by three independent experiments in triplicate. A one-way analysis of variance (ANOVA) with a Tukey’s multiple comparison test or an unpaired t-test was used to establish statistically significant differences in larval motility or development.

eggs of H. contortus = assay: Egg hatch assay; type: cell-based; settings: Haemonchus contortus, 48 h; read-out: Egg hatch inhibition (IC50 in µM)
Experimental: Compounds were also assessed for their effect on the hatching of eggs of H. contortus in vitro. To do this, eggs were isolated from the faeces from sheep with patent (30 day-) H. contortus infection by sucrose flotation ([Mes et al., 2007]). Eggs were suspended in H2O at a concentration of one egg per µl. The eggs were dispensed into wells (in triplicate; 100 eggs per well) and incubated with two-fold serial dilutions (9 points from 50 μM to 0.2 µM in H2O) of individual test or control compounds for 48 h at 27°C and >90% relative humidity; wells with no compound were also included. The numbers (percentages) of eggs from which first-stage larvae (L1s) hatched were counted using a light microscope (M80, Leica) at a 40-times magnification. With reference to positive-control compounds (i.e., monepantel and moxidectin), IC50 values of compounds were calculated.

He. polygyrus in mice = assay: In vivo activity against He. polygyrus in mice
Experimental: Candidate compound(s) were tested for their effect on other nematode species (He. polygyrus and A. ceylanicum) in infected rodents.
For He. polygyrus, four NMRI mice (3 weeks old; female) were infected orally with 88 He. polygyrus L3s, and immunosuppressed with 0.25 mg/ml dexamethasone (Sigma-Aldrich), in the drinking water, until 2 days prior to treatment ([Mes et al., 2007]). For A. ceylanicum, four Syrian golden hamsters (3 weeks old; male) were infected orally with 300 L3s without immunosuppression ([Tritten et al., 2012]). […] Four each of untreated mice and hamsters served as placebo controls. Six to 7 days post-treatment with the compound, all animals were euthanised by CO2 (hamsters being initially narcotised using isoflurane), and the intestine was dissected. The live adult worms were collected and counted to calculate the worm burden reductions and worm expulsion rates. The worm burden reduction was calculated using the mean number of live worms for the treated group and establishing the differences, in a percentage, with reference to the untreated control group.

[4] = mouse, He. polygyrus, 200 mg/kg single oral dose

`CCCc1ccc(-c2nc(-c3cccs3)no2)cc1` [UMW-868, 5-(4-propylphenyl)-3-(2-thienyl)-1,2,4-oxadiazole] was tested, and the “Abnormal phenotype detected at 168 h” value ([1]; 20 µM) was “Cur, Evi”, the inhibition at 20 µM ([1]; Haemonchus contortus, development to L4) was 80 to 99% and the “percentage of treated xL3s killed” value (H. contortus xL3s [2]; 50 μM, 90 h) was 100%. The “concentration at which cell death was detected in xL3s” value (H. contortus xL3s [2]; 90 h of exposure) was over 5 µM, the “dead cells detected microscopically in xL3s (Sytox Green)” value (H. contortus xL3s [2]; 168 h of exposure) was “dead cells could be seen throughout the larvae” and the IC50 (H. contortus xL3s [2]; Haemonchus contortus, 90 h, read-out: IC50 (lethality, inducing cell death in xL3s)) was 34.8 µM. For the same compound, the IC50 (H. contortus xL3s [3]; 90 h, xL3s, 90 h, read-out: IC50 (motility)) was 5.6 µM, the IC50 (H. contortus xL3s [3]; 168 h, analog series, read-out: xL3 motility reduction (IC50 in µM)) was 13.8 µM and the IC50 (eggs of H. contortus) was 6.2 µM. For the same compound, the “acute toxicity and pathological changes in treated animals” value (He. polygyrus in mice; mice, single oral dose, post-mortem examination) was “neither evidence of acute toxicity”, the “Mean no. of worms (SD)” value (He. polygyrus in mice; [4]) was 12.0 (3.5) and the “Reduction in infection intensity (%)” value (He. polygyrus in mice; [4]) was 47%.
